Source: patent US10952433B2, “Solutions for enhancing the effectiveness of insecticides and fungicides on living plants and related methods” (priority 2015, dated 2021)
Where two headings read alike, the source gives them in different places.

What was measured:
[1] = tested on: lepidopteran larvae: cabbage loopers (Trichoplusia ni) and beet armyworms (Spodoptera exigua); type: in vivo; details: leaf discs
Source text: A second series of tests involved romaine lettuce discs approximately ⅝ inch in diameter. (L. sativa). They were dipped in the treatment solution one second per disc. This test involved the 5/5 configuration, i.e., 5 treated and 5 untreated. The infestation involved […] lepidopteran larvae at the 3rd to 4th instar development per container: four cabbage loopers (Trichoplusia ni), and four beet armyworms (Spodoptera exigua) were employed. The test containers were placed in a dark humidity cabinet at 15° C. and 80% relative humidity. Visual evaluations of the average percent damage were taken at 24, 48 and 72 hours after the initiation of infestation. Damage was evaluated in 5% increments based on total disc area.
In the tests reported in Table 8 pages 29-32), romaine lettuce leaf discs ⅝″ in diameter (L. sativa) were dipped in the treatment solution for about one second per disc. Infestation was provided by eight lepidopteran larvae at the 3rd to 4th instar development per container. Four cabbage loopers (Trichoplusia ni) and four beet armyworms (Spodoptera exigua) were employed in infestation. The containers were placed in a dark humidity cabinet at 15° C. and 80% relative humidity. Visual observations of the average percent damage was taken at 24, 48 and 72 hours after infestation. Damage evaluation was by 5% increments over the total disc area.
In the tests results provided in Table 8, the identity and concentrations of the insecticide was identical to the tests results reported in Table 7. The concentration of 200:1 was employed for the no amino oxide, no buffer and buffered amine oxide system. This series of tests, however, reported how the percent damage changed with time at the respective 24, 48 and 72 hour intervals.

[2] = tested on: lepidopteran larvae: cabbage loopers (Trichoplusia ni) and beet armyworms (Spodoptera exigua); type: in vivo; details: plants
Procedure: In a first group of tests, the results of which are shown in Table 7 (pages 22-24), romaine lettuce plants two to three inches in height were exposed to 10 milliliters of solution applied to each plant using a low volume trigger spray. With respect to containers 0-7, ten plants were employed per container, nine were treated and one was an internal control. In containers M-H, ten plants per container were used, five were treated and 5 were internal controls. Each container was infested with 30 lepidopteran larvae between the 5th and 6th instar development. Fifteen cabbage loopers (Trichoplusia ni) and 15 beet armyworms (Spodoptera exigua) were used to infest the romaine lettuce plants. Visual evaluations for the average percentage total surface area damage were taken 24 hours after infestation. Percentage damage was evaluated by 5% increments for total damage across all plant leaves.
As indicated in the first column of Table 7, in some tests, no insecticide was employed and there were two controls; a no water control and a no dye control. A wide variety of insecticides selected from the following group were tested: Chlorantranilopril, Acephate, Methoxyfenozide, Spinosad, Permethrin, and Indoxacarb. The product concentration is shown in PPM in column 2. Column 3 is divided into two subunits, the first being CO3 and the second, PO4. In all instances in columns 3, 4 and 5 and their sub-columns, the concentrations used were 200:1. The fourth column employed amine oxide, but no buffer. […] Two sub-columns each are represented for CO3 and PO4. The final column is a reading of the Percent Lepidopteran Damage to the romaine lettuce plants after 24 hours.
In addition to testing the buffered amine system of the present invention with the two amine oxides identified as CO3 and PO4 and their use with 12 carbon length and a mixture of 12 and 18 designated 1218 for comparative data purposes various differences were created in the testing. Some of the tests were performed with (a) no insecticide along with (b) no amine oxide for CO3 and PO4 and (c) with no buffer, but with amine oxide. Also, tests were run using no insecticide and no water control with no foliar application being made. Tests with no insecticide and no dye control employed foliar application of water only. The tests were conducted with all of the testing on the buffer alone, the amine oxide alone and the buffered amine oxide system of the present invention in the concentration of 200:1.

[3] = insecticide + CO3 buffer 200:1, no amine oxide, PPM: Chlorantranilopril 60, Acephate 70, Methoxyfenozide 100, Spinosad 30, Permethrin 10, Indoxacarb 50
[4] = insecticide + PO4 buffer 200:1, no amine oxide, PPM: Chlorantranilopril 60, Acephate 70, Methoxyfenozide 100, Spinosad 30, Permethrin 10, Indoxacarb 50
[5] = insecticide + amine oxide 12, no buffer, 200:1, PPM: Chlorantranilopril 60, Acephate 70, Methoxyfenozide 100, Spinosad 30, Permethrin 10, Indoxacarb 50
[6] = insecticide + amine oxide 1218, no buffer, 200:1, PPM: Chlorantranilopril 60, Acephate 70, Methoxyfenozide 100, Spinosad 30, Permethrin 10, Indoxacarb 50
[7] = insecticide + buffered amine oxide system CO3, 12, 200:1, PPM: Chlorantranilopril 60, Acephate 70, Methoxyfenozide 100, Spinosad 30, Permethrin 10, Indoxacarb 50
[8] = insecticide + buffered amine oxide system CO3, 1218, 200:1, PPM: Chlorantranilopril 60, Acephate 70, Methoxyfenozide 100, Spinosad 30, Permethrin 10, Indoxacarb 50
[9] = insecticide + buffered amine oxide system PO4, 12, 200:1, PPM: Chlorantranilopril 60, Acephate 70, Methoxyfenozide 100, Spinosad 30, Permethrin 10, Indoxacarb 50
[10] = insecticide + buffered amine oxide system PO4, 1218, 200:1, PPM: Chlorantranilopril 60, Acephate 70, Methoxyfenozide 100, Spinosad 30, Permethrin 10, Indoxacarb 50
[11] = insecticide alone, highest, PPM: Chlorantranilopril 120, Acephate 140, Methoxyfenozide 200, Spinosad 60, Permethrin 20, Indoxacarb 100
[12] = insecticide alone, increased, PPM: Chlorantranilopril 90, Acephate 105, Methoxyfenozide 150, Spinosad 45, Permethrin 15, Indoxacarb 75
[13] = insecticide alone, PPM: Chlorantranilopril 60, Acephate 70, Methoxyfenozide 100, Spinosad 30, Permethrin 10, Indoxacarb 50

## Spinosad
[1]; [3]
  Percent Lepidopteran Damage to Romaine Lettuce 24 hr: 25.5%
  Percent Lepidopteran Damage to Romaine Lettuce 48 hr: 28.0%
  Percent Lepidopteran Damage to Romaine Lettuce 72 hr: 29.0%
[1]; [4]
  Percent Lepidopteran Damage to Romaine Lettuce 24 hr: 20.0%
  Percent Lepidopteran Damage to Romaine Lettuce 48 hr: 28.5%
  Percent Lepidopteran Damage to Romaine Lettuce 72 hr: 33.0%
[1]; [5]
  Percent Lepidopteran Damage to Romaine Lettuce 24 hr: 30.5%
  Percent Lepidopteran Damage to Romaine Lettuce 48 hr: 35.5%
  Percent Lepidopteran Damage to Romaine Lettuce 72 hr: 36.0%
[1]; [6]
  Percent Lepidopteran Damage to Romaine Lettuce 24 hr: 15.0%
  Percent Lepidopteran Damage to Romaine Lettuce 48 hr: 21.0%
  Percent Lepidopteran Damage to Romaine Lettuce 72 hr: 28.0%
[1]; [7]
  Percent Lepidopteran Damage to Romaine Lettuce 24 hr: 14.0%
  Percent Lepidopteran Damage to Romaine Lettuce 48 hr: 38.0%
  Percent Lepidopteran Damage to Romaine Lettuce 72 hr: 49.5%
[1]; [8]
  Percent Lepidopteran Damage to Romaine Lettuce 24 hr: 10.5%
  Percent Lepidopteran Damage to Romaine Lettuce 48 hr: 29.5%
  Percent Lepidopteran Damage to Romaine Lettuce 72 hr: 35.5%
[1]; [9]
  Percent Lepidopteran Damage to Romaine Lettuce 24 hr: 6.5%
  Percent Lepidopteran Damage to Romaine Lettuce 48 hr: 18.5%
  Percent Lepidopteran Damage to Romaine Lettuce 72 hr: 24.0%
[1]; [10]
  Percent Lepidopteran Damage to Romaine Lettuce 24 hr: 13.0%
  Percent Lepidopteran Damage to Romaine Lettuce 48 hr: 22.0%
  Percent Lepidopteran Damage to Romaine Lettuce 72 hr: 29.5%
[1]; [11]
  Percent Lepidopteran Damage to Romaine Lettuce 24 hr: 24.5%
  Percent Lepidopteran Damage to Romaine Lettuce 48 hr: 34.5%
  Percent Lepidopteran Damage to Romaine Lettuce 72 hr: 36.5%
[1]; [12]
  Percent Lepidopteran Damage to Romaine Lettuce 24 hr: 12.0%
  Percent Lepidopteran Damage to Romaine Lettuce 48 hr: 23.5%
  Percent Lepidopteran Damage to Romaine Lettuce 72 hr: 36.0%
[1]; [13]
  Percent Lepidopteran Damage to Romaine Lettuce 24 hr: 19.0%
  Percent Lepidopteran Damage to Romaine Lettuce 48 hr: 26.5%
  Percent Lepidopteran Damage to Romaine Lettuce 72 hr: 59.0%
[2]; [3]
  Percent Lepidopteran Damage to Romaine Lettuce 24 hr: 17.0%
[2]; [4]
  Percent Lepidopteran Damage to Romaine Lettuce 24 hr: 20.5%
[2]; [5]
  Percent Lepidopteran Damage to Romaine Lettuce 24 hr: 24.5%
[2]; [6]
  Percent Lepidopteran Damage to Romaine Lettuce 24 hr: 22.5%
[2]; [7]
  Percent Lepidopteran Damage to Romaine Lettuce 24 hr: 12.5%
[2]; [8]
  Percent Lepidopteran Damage to Romaine Lettuce 24 hr: 9.5%
[2]; [9]
  Percent Lepidopteran Damage to Romaine Lettuce 24 hr: 10.0%
[2]; [10]
  Percent Lepidopteran Damage to Romaine Lettuce 24 hr: 6.5%
[2]; [11]
  Percent Lepidopteran Damage to Romaine Lettuce 24 hr: 19.0%
[2]; [12]
  Percent Lepidopteran Damage to Romaine Lettuce 24 hr: 17.0%
[2]; [13]
  Percent Lepidopteran Damage to Romaine Lettuce 24 hr: 28.5%
